Five molecules from PubChem BioAssay AID1259407 (Chemical Carcinogenesis Research Information System (CCRIS), 2018) can be followed below.

The series has as its system CCRIS mutagenicity, Ames/micronucleus/aberration tests. Put plainly: CCRIS mutagenicity studies.

The source made the active and inactive calls. No rule for the calls is given here.

For `CC(=O)CC(=O)Nc1ccc(C)cc1`, the mutagenic call by setting is: (Test System: AMES SALMONELLA TYPHIMURIUM, Strain/Indicator: TA98, Metabolic Activation: NONE, Method: PREINCUBATION) “inactive; negative”; (Test System: AMES SALMONELLA TYPHIMURIUM, Strain/Indicator: TA98, Metabolic Activation: RAT, LIVER, S-9, PHENOBARBITAL AND BETA-NAPHTHOFLAVONE, Method: PREINCUBATION) “inactive; negative”; (Test System: AMES SALMONELLA TYPHIMURIUM, Strain/Indicator: TA100, Metabolic Activation: NONE, Method: PREINCUBATION) “inactive; negative”; (Test System: AMES SALMONELLA TYPHIMURIUM, Strain/Indicator: TA100, Metabolic Activation: RAT, LIVER, S-9, PHENOBARBITAL AND BETA-NAPHTHOFLAVONE, Method: PREINCUBATION) “inactive; negative”; (Test System: AMES SALMONELLA TYPHIMURIUM, Strain/Indicator: TA102, Metabolic Activation: NONE, Method: PREINCUBATION) “inactive; negative”; (Test System: AMES SALMONELLA TYPHIMURIUM, Strain/Indicator: TA102, Metabolic Activation: NONE, Method: STANDARD PLATE) “inactive; negative”. Also, the mutagenic call (Test System: AMES SALMONELLA TYPHIMURIUM, Strain/Indicator: TA102, Metabolic Activation: RAT, LIVER, S-9, PHENOBARBITAL AND BETA-NAPHTHOFLAVONE, Method: PREINCUBATION) was “inactive; negative”; the mutagenic call (Test System: AMES SALMONELLA TYPHIMURIUM, Strain/Indicator: TA104, Metabolic Activation: NONE, Method: PREINCUBATION) was “inactive; negative”; the mutagenic call (Test System: AMES SALMONELLA TYPHIMURIUM, Strain/Indicator: TA104, Metabolic Activation: RAT, LIVER, S-9, PHENOBARBITAL AND BETA-NAPHTHOFLAVONE, Method: PREINCUBATION) was “inactive; negative”; the mutagenic call (Test System: AMES SALMONELLA TYPHIMURIUM, Strain/Indicator: TA1535, Metabolic Activation: NONE, Method: PREINCUBATION) is “inactive; negative”; the mutagenic call (Test System: AMES SALMONELLA TYPHIMURIUM, Strain/Indicator: TA1535, Metabolic Activation: RAT, LIVER, S-9, PHENOBARBITAL AND BETA-NAPHTHOFLAVONE, Method: PREINCUBATION) is “inactive; negative”; the mutagenic call (Test System: AMES SALMONELLA TYPHIMURIUM, Strain/Indicator: TA1537, Metabolic Activation: NONE, Method: PREINCUBATION) was “inactive; negative”. The mutagenic call is, setting by setting: (Test System: AMES SALMONELLA TYPHIMURIUM, Strain/Indicator: TA1537, Metabolic Activation: RAT, LIVER, S-9, PHENOBARBITAL AND BETA-NAPHTHOFLAVONE, Method: PREINCUBATION) “inactive; negative”; (Test System: AMES SALMONELLA TYPHIMURIUM, Strain/Indicator: TA2638, Metabolic Activation: NONE, Method: STANDARD PLATE) “inactive; negative”; (Test System: E. COLI, Strain/Indicator: WP2 (PKM101), Metabolic Activation: NONE, Method: STANDARD PLATE) “inactive; negative”; (Test System: E. COLI, Strain/Indicator: WP2 UVRA (PKM101), Metabolic Activation: NONE, Method: STANDARD PLATE) “inactive; negative”; (Test System: E. COLI, Strain/Indicator: WP2UVRA/PKM101, Metabolic Activation: NONE, Method: PREINCUBATION) “active; positive”; (Test System: E. COLI, Strain/Indicator: WP2UVRA, Metabolic Activation: NONE, Method: PREINCUBATION) “inactive; negative”. The mutagenic call (Test System: E. COLI, Strain/Indicator: WP2UVRA, Metabolic Activation: RAT, LIVER, S-9, PHENOBARBITAL AND BETA-NAPHTHOFLAVONE, Method: PREINCUBATION) was “inactive; negative”.
In the case of `CNc1ccc(N=Nc2ccc(NC)cc2)cc1`, the mutagenic call was “inactive; negative” (Test System: AMES SALMONELLA TYPHIMURIUM, Strain/Indicator: TA98, Metabolic Activation: RAT, LIVER, S-9, POLYCHLORINATED BIPHENYLS, Method: PREINCUBATION) and “inactive; negative” (Test System: AMES SALMONELLA TYPHIMURIUM, Strain/Indicator: TA100, Metabolic Activation: RAT, LIVER, S-9, POLYCHLORINATED BIPHENYLS, Method: PREINCUBATION).
Turning to `CN(C)CCNC(=O)c1cccc2c1Nc1ccccc1O2`, for the setting “Test System: AMES SALMONELLA TYPHIMURIUM, Strain/Indicator: TA1537, Metabolic Activation: NONE, Method: STANDARD PLATE”, the mutagenic call was “active; positive”.
As for `CC[N+](CC)=c1ccc2nc3c(cc(N)c4ccccc43)oc-2c1`, the mutagenic call (Test System: AMES SALMONELLA TYPHIMURIUM, Strain/Indicator: TA100, Metabolic Activation: RAT, LIVER, S-9, AROCLOR 1254, Method: STANDARD PLATE) was “active; positive”; the mutagenic call (Test System: AMES SALMONELLA TYPHIMURIUM, Strain/Indicator: TA1538, Metabolic Activation: NONE, Method: STANDARD PLATE) was “inactive; negative”; the mutagenic call (Test System: AMES SALMONELLA TYPHIMURIUM, Strain/Indicator: TA1538, Metabolic Activation: RAT, LIVER, S-9, AROCLOR 1254, Method: STANDARD PLATE) was “active; positive”.
As for `COc1ccc2c(c1)[C@@H]1CCCC[C@H]1C=C2`, the mutagenic call (Test System: AMES SALMONELLA TYPHIMURIUM, Strain/Indicator: TA98, Metabolic Activation: RAT, LIVER, S-9, SODIUM PHENOBARBITAL AND BETA-NAPHTHOFLAVONE, Method: STANDARD PLATE) is “active; positive” and the mutagenic call (Test System: AMES SALMONELLA TYPHIMURIUM, Strain/Indicator: TA100, Metabolic Activation: RAT, LIVER, S-9, SODIUM PHEOBARBITAL AND BETA-NAPHTHOFLAVONE, Method: STANDARD PLATE) is “active; positive”.
